What is called EC50 is the concentration needed to bring the measured effect to its halfway point.

The structures appear in SMILES notation.

In the assay the test system is HeLa. As to the kind of experiment: Cytotoxicity against HeLa cell lines. The format is functional, cell-based. The note with it: Homo sapiens.
Take `O=C1c2ccccc2C(=O)c2c1[nH]c1ccccc21` [BENZOCARBAZOLEDIONE]: the response was half-maximal at 430 nM (EC50).
In the case of `COn1c2c(c3ccccc31)C(=O)c1ccccc1C2=O`, the EC50 was 1600 nM.
On to `COC(=O)c1ccccc1C(=O)c1c[nH]c2ccccc12`, for which the EC50 is > 50000 nM.
In the case of `O=C1c2c[n+]([O-])c3ccccc3c2C(=O)c2[nH]c3ccccc3c21` [CALOTHRIXIN A] it was 120 nM; in that of `O=C1c2ccncc2C(=O)c2c1[nH]c1ccccc21`, 150 nM.
Compound `O=C1c2[nH]c3ccccc3c2C(=O)c2cnc3ccccc3c21` [CALOTHRIXIN B] displayed an EC50 of 240 nM.
Under `COCn1c2c(c3ccccc31)C(=O)c1cnc3ccccc3c1C2=O` stands 420 nM.
For the compound `COC(=O)c1ccccc1C(=O)c1cn(OC)c2ccccc12`, the EC50 was > 50000 nM.
In the case of `CC1=CC(=O)c2ccccc2C1=O` [MENADIONE] it was 3700 nM.

The values above are taken from ChEMBL document CHEMBL1137989, “Synthesis, electrochemistry, and bioactivity of the cyanobacterial calothrixins and related quinones” (J Med Chem, 2004).
